How the values were obtained:
Caspase-1 [1] = target: T1, Caspase-1 (Homo sapiens, UniProt P29466, D381E); experiment: Compound was tested for inhibitory activity against N-His (D381E) Interleukin -1 beta converting enzyme (resynthesized compound)
Caspase-1 [2] = target: T1, Caspase-1; experiment: Compound was tested for inhibitory activity against N-His (D381E) Interleukin -1 beta converting enzyme (combinatorially prepared compound)
Caspase-1 [3] = target: T1, Caspase-1; experiment: Compound was tested for binding affinity against N-His (D381E) Interleukin -1 beta converting enzyme

T1 sequence (P29466 120-297 limits assumed): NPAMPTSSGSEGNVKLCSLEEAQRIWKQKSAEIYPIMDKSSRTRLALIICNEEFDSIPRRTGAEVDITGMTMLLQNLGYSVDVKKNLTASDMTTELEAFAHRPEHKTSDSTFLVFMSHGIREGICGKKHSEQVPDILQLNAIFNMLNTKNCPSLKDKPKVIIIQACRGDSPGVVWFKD
T1 sequence (P29466 317-404 D381E limits assumed): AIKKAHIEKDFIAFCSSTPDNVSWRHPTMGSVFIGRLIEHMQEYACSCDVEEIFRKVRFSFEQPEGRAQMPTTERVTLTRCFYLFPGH

Question: For `CC(=O)NC(C(=O)N[C@@H](CC(=O)O)C(=O)COC(=O)Cc1c(Cl)ccc(Cl)c1Cl)C(C)C` (stereo partly specified), which IC50 (Caspase-1 [1]) is on record?
Answer: 7 nM

Question: What about the IC50 (Caspase-1 [2]) of the same molecule?
Answer: 5 nM

Question: And the Ki (Caspase-1 [3])?
Answer: 113 nM

Question: `O=C(O)C[C@H](NC(=O)OCc1ccccc1)C(=O)COC(=O)CCc1ccccc1` was tested. Which IC50 (Caspase-1 [1]) did it give?
Answer: 35000 nM

Question: What about the IC50 (Caspase-1 [2]) of the same molecule?
Answer: 12000 nM

Question: And the Ki (Caspase-1 [3])?
Answer: 4500 nM

Question: What does the source list for `CC(=O)NC(C(=O)N[C@@H](CC(=O)O)C(=O)COC(=O)Cc1c(Cl)cccc1Cl)C(C)C` (stereo partly specified)?
Answer: IC50 (Caspase-1 [1]): 8 nM; IC50 (Caspase-1 [2]): 5 nM; Ki (Caspase-1 [3]): 82 nM

Question: How did the IC50 (Caspase-1 [2]) turn out when `O=C(O)C[C@H](NC(=O)OCc1ccccc1)C(=O)COC(=O)Cc1c(Cl)cccc1Cl` was run?
Answer: 742 nM

Question: `O=C(O)C[C@H](NC(=O)OCc1ccccc1)C(=O)COC(=O)Cc1c(Cl)ccc(Cl)c1Cl` was tested. Which IC50 (Caspase-1 [2]) did it give?
Answer: 936 nM
